# Laboratory results published in US20130053438A1, “PHARMACEUTICAL COMPOSITIONS COMPRISING LIGNANS AND THEIR DERIVATIVES FOR THE MEDICAL MANAGEMENT OF ANGIOGENESIS AND HYPOVASCULARITY” (Universitat Innsbruck, priority 2010, published 2013).
# Values joined by “and” are separate entries in the source; they are usually repeats but may differ in a detail not shown here. Equal entries are not always repeated.
# How the values were obtained:
# [1] = test system: wound closure in pigs (Deutsches Landschwein); assay: porcine model for time of wound closure, topical administration; format: in vivo, pig
# Protocol: FIG. 9. […] N for control and Leoligin treated wounds is 5. […] Data assessment was conducted in a blinded manner.
# For the large animal model 30-35 kg pigs (Deutsches Landschwein) was used. Animals were supplied by, kept, and experiments were performed at the Central Animal Testing Facility of the University of Innsbruck and the “Besondere Einrichtung für Biomedizinische Forschung” of the Medical University of Vienna. Pigs received a standard growth diet.
# One hour prior to anaesthesia pigs received an intramuscular injection of 4 mg/kg Azaperon and 0.1 mg/kg Atropin. Full anaesthesia was achieved by intravenously applied 2-3 mg/kg Propofol and 15 mg Piritramid, followed by intubation of animals and ventilation with 30% O2. Muscle relaxation was achieved by an initial does of 8 mg Pancuronium and repetition with 0.2 mg/kg/h Pancuronium. Maintenance of anaesthesia was achieved by continuous infusion with 8-12 mg/kg/h Propofol and 15 mg Piritramid.
# In the course of an experimental bypass surgery in the pig, after re-implantation of the graft (into the carotis artery) Leoligin (“Leo”) or NaCl control solution was added into the wound topically (the situs was filled with control solution (0.9% NaCl) or a solution containing leoligin at 100 μM. By optical inspection every 24 hours of blinded researchers the time to wound closure/healing was documented. Animals with infected wounds were excluded from the analysis.
# venous bypass grafts = settings: prior art, Reisinger (2009); cited from earlier work
# [2] = test system: small muscle cells and endothelial cells; settings: prior art, Reisinger et al. (2009); cited from earlier work
# [3] = test system: human microvascular endothelial cells; assay: capillary (endothelial tube) formation on matrigel substrate; format: cell-based; settings: within 6 hrs of incubation, quantified by imaging software
# Excerpt: (§1) In particular 5-methoxy-leoligin has been shown and exemplified in the appended examples as a potent activator of angiogenesis. […] Furthermore, the pro-angiogenic activity of 5-methoxy-leoligin has been tested in vivo in the chorioallantois membrane (CAM) assay of chicken embryos. […] These assays are recognized in the art to represent functional assays for in vitro and in vivo angiogenesis; see Methods in Endothelial cell biology, H G Augustin Ed.; 2004, Springer Lab Manual, ISBN 3-540-21397-X, Springer —Verlag Berlin, Heidelberg, N.Y..
# Cells form tube-like structures between each other within 6 hrs of incubation. Those were quantified by an imaging software.
# HUVECs = assay: angiogenic sprouting in a 3-D Collagen matrix (spheroid sprouting assay); format: cell-based; settings: after 24 h of stimulation
# Excerpt: as §1
# These sprouts were analyzed after 24 h of stimulation and “cumulative sprout length” (CSL) of each sprout was quantified in μm.
# [4] = test system: chorioallantois membrane (CAM) of chicken embryos; assay: chicken chorioallantoic membrane (CAM) assay; format: in vivo; settings: chicken embryo CAM, each group 5 eggs, p<0.05
# Excerpt: as §1
# Each group consists of 5 eggs.
# endothelial cells = assay: wound scratch healing assay; format: cell-based; settings: 1 and 10 μM, 9 hours
# Protocol: The upper two images show the migration of endothelial cells into scratch area without treatment (left side) an in the presence of Lag2 (right side). The two images at the bottom are the control images of the scratch size at 0 hours.
Structure (SMILES),wound healing (in words) ([1]; leoligin 100 μM topical),"time until wound closure after surgery, mean value ([1]; leoligin 100 μM topical, N = 5) [days]","time until wound closure after surgery, individual wounds ([1]; situs filled with solution containing leoligin at 100 μM, topical, inspection every 24 hours, blinded, listed as Leo)",effect on intimal hyperplasia of venous bypass grafts (venous bypass grafts),induction of cell death [2],capillary formation (tube-like structures) [3],capillary formation (tube-like structures) ([3]; listed as LaG2),number and length of angiogenic sprouts (cumulative sprout length) (HUVECs),number and length of angiogenic sprouts (cumulative sprout length) (HUVECs; listed as LaG2),vascular density / blood vessel formation [4],vascular density / blood vessel formation ([4]; listed as LaG2),migration of endothelial cells into scratch area / wound healing (endothelial cells)
"C/C=C(/C)C(=O)OC[C@H]1[C@@H](Cc2ccc(OC)c(OC)c2)CO[C@@H]1c1ccc(OC)c(OC)c1 [leoligin, [(2S,3R,4R)-4-(3,4-dimethoxybenzyl)-2-(3,4-dimethoxyphenyl)tetrahydrofuran-3-yl]methyl (2Z)-2-methylbut-2-enoat]",can successfully be used to promote wound healing,19.4,19 days and 20 days and 16 days and 21 days (2×),inhibits intimal hyperplasia of venous bypass grafts,did not induce cell death,,,,,,,
"C/C=C(/C)C(=O)OC[C@H]1[C@@H](Cc2ccc(OC)c(OC)c2)CO[C@@H]1c1cc(OC)c(OC)c(OC)c1 [5-methoxy-leoligin, [(2S,3R,4R)-4-(3,4-dimethoxybenzyl)-2-(3,4,5-trimethoxyphenyl)tetrahydrofuran-3-yl]methyl-(2Z)-2-methylbut-2-enoat]",,,,,,significant increase in capillary formation,dose-depentently supported capillary formation,significantly enhanced both the length and number of angiogenic sprouts,significant increase of sprout number and lengths,significantly increased the vascular density,dose-dependently supported embryonic blood vessel formation,promotes the migration of endothelial cells into damaged tissue and stimulates wound healing
